Earlier results as cited in patent US20230082870A1, “COMPOSITION FOR CALCIUM SUPPLEMENTATION” (ABIOGEN PHARMA S.P.A., priority 2017, published 2023).

Conditions: state of the art

## O=C([O-])CC(O)(CC(=O)[O-])C(=O)[O-].O=C([O-])CC(O)(CC(=O)[O-])C(=O)[O-].[Ca+2].[Ca+2].[Ca+2] [calcium citrate]
  Bioavailability, higher than that of calcium carbonate: 20-30%
